Reference: paper PMC6196238, “Novobiocin, a Newly Found TRPV1 Inhibitor, Attenuates the Expression of TRPV1 in Rat Intestine and Intestinal Epithelial Cell Line IEC-6” (Frontiers in Pharmacology, 2018)
One block for each molecule: values may come before it.

Columns and labels:
IEC-6/TRPV1+ cells [1] = experiment: CAP accumulation assay; assay type: cell-based, rat; details: for accumulation of CAP after inhibitor added at 60 min: CAP alone 60 min, then SB-705498 or NOVO (5 and 10 μM), at 75 min, Figure 3E
Description: The transfected cells were grown to 80% confluence in 12-well plates. […] SB-705498, RR or NOVO was then added to the medium for another 15, 30, and 60 min. […] After incubation, the medium was removed, and cell layers were washed three times with ice-cold PBS and then extracted with Membrane Protein Extraction Kit (Thermo Fisher Scientific Inc, Rockford, IL, United States), according to the manufacturer’s protocol. The cytosolic protein extracts were stored at -80°C until LC-MS/MS analysis.
The plasma samples and protein sample with 100 μL were extracted with 400 μL of methanol involving IS (verapamil 50 ng⋅mL^-1) by vortex-mix for 1 min, ultrasonic extraction for 1 h, and then centrifugation for 30 min at 15000 g. The supernatant was transferred into a borosilicate glass and 2 μL was subjected to LC-MS/MS analysis.
The LC-MS/MS system consisted of Agilent 6460 Triple Quadrupole LC/MS systems via an ESI interface. The samples were separated on an Agilent ZORBAX SB-C18 column (3.5 μm, 2.1 mm × 150 mm) and the column temperature was maintained at 30°C. The mobile phase consisted of acetonitrile and water contains 0.1% formic acid (70:30, v/v). The flow rate was 0.2 mL⋅min^-1. The ion source was an electrospray ionization interface in the positive mode. […] Other parameters were as follows: spray voltage, 4.0 kV; capillary temperature, 350°C; gas flow, 10 L⋅min^-1.

IEC-6/TRPV1+ cells [2] = experiment: LDH release assay (cell membrane integrity); details: for LDH release: IEC-6/TRPV1+; for LDH release compared with the control: NOVO 2.5, 5, 10 μM, CAP 25 μM, RR 10 μM, SB-705498 0.1 μM, 12 and 24 h
Description: (§4) The transfected cells were plated in 12-well plates. […] The cells were centrifuged at 1000 g for 5 min. Next, 50 μL of supernatants were aspirated and the rest of supernatants were discarded. The cells were washed twice with deionized water and then lysed by ultrasonic wave cracker. And then cell lysate and supernatants were analyzed by using LDH Release Assay Kit, according to the manufacturer’s instructions.

IEC-6/TRPV1- cells [3] = experiment: LDH release assay (cell membrane integrity)
Description: as §4

IEC-6/TRPV1- cells [4] = experiment: CAP accumulation assay; assay type: cell-based, rat; details: 2.5-10 μM NOVO, 10 μM RR, 0.1 μM SB-705498, Figure 3D
Description: The transfected cells were grown to 80% confluence in 12-well plates. The experiment was divided into three parts: […] SB-705498, RR or NOVO was then added to the medium for another 15, 30, and 60 min. […] After incubation, the medium was removed, and cell layers were washed three times with ice-cold PBS and then extracted with Membrane Protein Extraction Kit (Thermo Fisher Scientific Inc, Rockford, IL, United States), according to the manufacturer’s protocol. The cytosolic protein extracts were stored at -80°C until LC-MS/MS analysis. The plasma samples and protein sample with 100 μL were extracted with 400 μL of methanol involving IS (verapamil 50 ng⋅mL^-1) by vortex-mix for 1 min, ultrasonic extraction for 1 h, and then centrifugation for 30 min at 15000 g. The supernatant was transferred into a borosilicate glass and 2 μL was subjected to LC-MS/MS analysis. The LC-MS/MS system consisted of Agilent 6460 Triple Quadrupole LC/MS systems via an ESI interface. The samples were separated on an Agilent ZORBAX SB-C18 column (3.5 μm, 2.1 mm × 150 mm) and the column temperature was maintained at 30°C. The mobile phase consisted of acetonitrile and water contains 0.1% formic acid (70:30, v/v). The flow rate was 0.2 mL⋅min^-1. The ion source was an electrospray ionization interface in the positive mode. […] Other parameters were as follows: spray voltage, 4.0 kV; capillary temperature, 350°C; gas flow, 10 L⋅min^-1.

IEC-6/TRPV1+ cells [5] = experiment: MTT cell viability assay; details: for Cell Survival: IEC-6/TRPV1+
Description: (§1) The rat intestinal epithelial cell line IEC-6, purchased from Kunming Institute of Zoology. CAS, was cultured in Dulbecco’s Modified Eagle’s Medium (DMEM) (Gibco, Grand Island, NY, United States) supplemented with 10% fetal bovine serum (FBS; Gibco) at 37°C in a humidified atmosphere of 5% CO2.
(§2) The plasmid pENTER containing the TRPV1 coding sequence NM_080704 was used as template in a PCR with the following primers: 5′-[…]-3′ (forward) and 5′-[…] (reverse). And synthetic small interfering RNA (siRNA) specific for rat TRPV1 (TRPV1-siRNA) was purchased from Vigene Bioscience (Rockville, MD, United States) with the following sequences: 5′-[…]-3′ (forward) and 5′-[…]-3′ (reverse) for TRPV1-siRNA. The transfecting process was conducted by using the lipofectamin® 3000 transfection reagent (Invitrogen^TM, Carlsbad, CA, United States), according to the manufacturer’s protocol.
(§3) The transfected cells were plated in 96-well plates. […] Optical density at 490 nm was used to evaluate cell viability in 96-well plates.

IEC-6/TRPV1- cells [6] = experiment: MTT cell viability assay
Description: as §1, §2, §3

- LDH release (IEC-6/TRPV1+ cells [2]; 1 μM, 12 h): 0.415 ± 0.169 gprot⋅mL ^-1
- LDH release (IEC-6/TRPV1+ cells [2]; 1 μM, 24 h): 0.353 ± 0.026 gprot⋅mL ^-1
- LDH release (IEC-6/TRPV1+ cells [2]; 5 μM, 12 h): 0.356 ± 0.090 gprot⋅mL ^-1
- LDH release (IEC-6/TRPV1+ cells [2]; 5 μM, 24 h): 0.300 ± 0.052 gprot⋅mL ^-1
- LDH release (IEC-6/TRPV1+ cells [2]; 10 μM, 12 h): 0.337 ± 0.005 gprot⋅mL ^-1
- LDH release (IEC-6/TRPV1+ cells [2]; 10 μM, 24 h): 0.299 ± 0.072 gprot⋅mL ^-1
- LDH release compared with the control (IEC-6/TRPV1+ cells [2]): not any significant difference
- LDH release (IEC-6/TRPV1- cells [3]; 1 μM, 12 h): 0.638 ± 0.131 gprot⋅mL ^-1
- LDH release (IEC-6/TRPV1- cells [3]; 1 μM, 24 h): 0.433 ± 0.127 gprot⋅mL ^-1
- LDH release (IEC-6/TRPV1- cells [3]; 5 μM, 12 h): 0.651 ± 0.120 gprot⋅mL ^-1
- LDH release (IEC-6/TRPV1- cells [3]; 5 μM, 24 h): 0.554 ± 0.103 gprot⋅mL ^-1
- LDH release (IEC-6/TRPV1- cells [3]; 10 μM, 12 h): 0.535 ± 0.119 gprot⋅mL ^-1
- LDH release (IEC-6/TRPV1- cells [3]; 10 μM, 24 h): 0.502 ± 0.106 gprot⋅mL ^-1
SMILES: CO[C@@H]1[C@@H](OC(N)=O)[C@@H](O)[C@H](Oc2ccc3c(O)c(NC(=O)c4ccc(O)c(CC=C(C)C)c4)c(=O)oc3c2C)OC1(C)C [NOVO, novobiocin]
- accumulation of CAP after inhibitor added at 60 min (IEC-6/TRPV1+ cells [1]): decreased immediately
- accumulation of CAP, co-incubation (IEC-6/TRPV1+ cells [1]; CAP in combination with 2.5-10 μM NOVO, vs control, Figure 3C): strong inhibition
- accumulation of CAP in cells after 24 h pre-treatment (IEC-6/TRPV1+ cells [1]; NOVO 2.5-10 μM 24 h prior to 25 μM CAP for 60 min, Figure 3B): positive correlation with a decrease in the accumulation of CAP
- accumulation of CAP, co-incubation (IEC-6/TRPV1- cells [4]): did not change
- Cell Survival (IEC-6/TRPV1+ cells [5]; 1.25 μM, incubation 12 h): 1.208 ± 0.172
- Cell Survival (IEC-6/TRPV1+ cells [5]; 1.25 μM, incubation 24 h): 1.353 ± 0.192
- Cell Survival (IEC-6/TRPV1+ cells [5]; 2.5 μM, incubation 12 h): 1.139 ± 0.157
- Cell Survival (IEC-6/TRPV1+ cells [5]; 2.5 μM, incubation 24 h): 1.326 ± 0.252
- Cell Survival (IEC-6/TRPV1+ cells [5]; 5 μM, incubation 12 h): 1.118 ± 0.201
- Cell Survival (IEC-6/TRPV1+ cells [5]; 5 μM, incubation 24 h): 1.282 ± 0.203
- Cell Survival (IEC-6/TRPV1+ cells [5]; 10 μM, incubation 12 h): 1.156 ± 0.135
- Cell Survival (IEC-6/TRPV1+ cells [5]; 10 μM, incubation 24 h): 0.954 ± 0.012
- Cell Survival (IEC-6/TRPV1+ cells [5]; 20 μM, incubation 12 h): 1.113 ± 0.102
- Cell Survival (IEC-6/TRPV1+ cells [5]; 20 μM, incubation 24 h): 0.744 ± 0.232
- Cell Survival (IEC-6/TRPV1+ cells [5]; 40 μM, incubation 12 h): 1.018 ± 0.091
- Cell Survival (IEC-6/TRPV1+ cells [5]; 40 μM, incubation 24 h): 0.752 ± 0.291
- Cell Survival (IEC-6/TRPV1+ cells [5]; 50 μM, incubation 12 h): 1.065 ± 0.125
- Cell Survival (IEC-6/TRPV1+ cells [5]; 50 μM, incubation 24 h): 0.668 ± 0.124
- concentration up to which more than 80% of the cells were viable (IEC-6/TRPV1+ cells [5]; both IEC-6/TRPV1+ and IEC-6/TRPV1-, incubated 24 h): 10 µM
- Cell Survival (IEC-6/TRPV1- cells [6]; 1.25 μM, incubation 12 h): 1.261 ± 0.512
- Cell Survival (IEC-6/TRPV1- cells [6]; 1.25 μM, incubation 24 h): 1.192 ± 0.099
- Cell Survival (IEC-6/TRPV1- cells [6]; 2.5 μM, incubation 12 h): 1.063 ± 0.361
- Cell Survival (IEC-6/TRPV1- cells [6]; 2.5 μM, incubation 24 h): 1.113 ± 0.177
- Cell Survival (IEC-6/TRPV1- cells [6]; 5 μM, incubation 12 h): 1.128 ± 0.274
- Cell Survival (IEC-6/TRPV1- cells [6]; 5 μM, incubation 24 h): 0.952 ± 0.134
- Cell Survival (IEC-6/TRPV1- cells [6]; 10 μM, incubation 12 h): 1.101 ± 0.101
- Cell Survival (IEC-6/TRPV1- cells [6]; 10 μM, incubation 24 h): 0.861 ± 0.088
- Cell Survival (IEC-6/TRPV1- cells [6]; 20 μM, incubation 12 h): 1.011 ± 0.194
- Cell Survival (IEC-6/TRPV1- cells [6]; 20 μM, incubation 24 h): 0.749 ± 0.138
- Cell Survival (IEC-6/TRPV1- cells [6]; 40 μM, incubation 12 h): 1.051 ± 0.214
- Cell Survival (IEC-6/TRPV1- cells [6]; 40 μM, incubation 24 h): 0.647 ± 0.015
- Cell Survival (IEC-6/TRPV1- cells [6]; 50 μM, incubation 12 h): 1.123 ± 0.293
- Cell Survival (IEC-6/TRPV1- cells [6]; 50 μM, incubation 24 h): 0.591 ± 0.261

- LDH release (IEC-6/TRPV1+ cells [2]; 0.1 μM, 12 h): 0.469 ± 0.124 gprot⋅mL ^-1
- LDH release (IEC-6/TRPV1+ cells [2]; 0.1 μM, 24 h): 0.423 ± 0.149 gprot⋅mL ^-1
- LDH release compared with the control (IEC-6/TRPV1+ cells [2]): not any significant difference
- LDH release (IEC-6/TRPV1- cells [3]; 0.1 μM, 12 h): 0.509 ± 0.155 gprot⋅mL ^-1
- LDH release (IEC-6/TRPV1- cells [3]; 0.1 μM, 24 h): 0.537 ± 0.019 gprot⋅mL ^-1
SMILES: O=C(Nc1ccccc1Br)N[C@@H]1CCN(c2ccc(C(F)(F)F)cn2)C1 [SB-705498]
- accumulation of CAP after inhibitor added at 60 min (IEC-6/TRPV1+ cells [1]): decreased immediately
- accumulation of CAP, co-incubation (IEC-6/TRPV1- cells [4]): did not change
- Cell Survival (IEC-6/TRPV1+ cells [5]; 0.001 μM, incubation 12 h): 1.114 ± 0.190
- Cell Survival (IEC-6/TRPV1+ cells [5]; 0.001 μM, incubation 24 h): 1.018 ± 0.061
- Cell Survival (IEC-6/TRPV1+ cells [5]; 0.01 μM, incubation 12 h): 1.101 ± 0.236
- Cell Survival (IEC-6/TRPV1+ cells [5]; 0.01 μM, incubation 24 h): 1.129 ± 0.185
- Cell Survival (IEC-6/TRPV1+ cells [5]; 0.1 μM, incubation 12 h): 1.274 ± 0.223
- Cell Survival (IEC-6/TRPV1+ cells [5]; 0.1 μM, incubation 24 h): 1.118 ± 0.139
- Cell Survival (IEC-6/TRPV1+ cells [5]; 1 μM, incubation 12 h): 1.203 ± 0.139
- Cell Survival (IEC-6/TRPV1+ cells [5]; 1 μM, incubation 24 h): 1.052 ± 0.100
- Cell Survival (IEC-6/TRPV1+ cells [5]; 5 μM, incubation 12 h): 1.276 ± 0.156
- Cell Survival (IEC-6/TRPV1+ cells [5]; 5 μM, incubation 24 h): 0.976 ± 0.098
- Cell Survival (IEC-6/TRPV1- cells [6]; 0.001 μM, incubation 12 h): 1.261 ± 0.268
- Cell Survival (IEC-6/TRPV1- cells [6]; 0.001 μM, incubation 24 h): 0.999 ± 0.082
- Cell Survival (IEC-6/TRPV1- cells [6]; 0.01 μM, incubation 12 h): 1.158 ± 0.144
- Cell Survival (IEC-6/TRPV1- cells [6]; 0.01 μM, incubation 24 h): 0.968 ± 0.218
- Cell Survival (IEC-6/TRPV1- cells [6]; 0.1 μM, incubation 12 h): 1.169 ± 0.333
- Cell Survival (IEC-6/TRPV1- cells [6]; 0.1 μM, incubation 24 h): 0.962 ± 0.184
- Cell Survival (IEC-6/TRPV1- cells [6]; 1 μM, incubation 12 h): 1.001 ± 0.229
- Cell Survival (IEC-6/TRPV1- cells [6]; 1 μM, incubation 24 h): 0.933 ± 0.077
- Cell Survival (IEC-6/TRPV1- cells [6]; 5 μM, incubation 12 h): 0.931 ± 0.296
- Cell Survival (IEC-6/TRPV1- cells [6]; 5 μM, incubation 24 h): 0.907 ± 0.039
